Holding throughout (assay): Chemotherapeutic activity against systemic infection in mice
Common to all, as to format: in vivo

The subject of test [1] is Escherichia coli 2018. The note with it: systemic infection in mice with Escherichia coli 2018; oral application. On the procedure:
(§1) Die Verbindungen der Formel I, worin Am eine freie Aminogruppe ist und ihre pharmazeutisch verwendbaren, nichttoxischen Salze sind wertvolle, antibiotisch wirksame Substanzen, die insbesondere als antibakterielle Antibiotika verwendet werden können. Beispielsweise haben sie in vivo bei oraler Applikation an der Maus bei systemischen Infektionen mit Staphylococcus aureus eine ED50 von etwa 70-100 mg/kg, und bei systemischen Infektionen mit Enterobakterien, z.B. Escherichia coli, Klebsiella pneumonia, Proteus mirabilis oder Proteus morganii eine ED50 von etwa 0.35 bis 100 mg/kg.
(§2) Chemotherapeutische Wirksamkeit gegen systemische Infektionen in Mäusen.

The test system of test [2] is Escherichia coli 205. Particulars: systemic infection in mice with Escherichia coli 205; oral application. On the procedure: as §1, §2
The subject of test [3] is Klebsiella pneumonia. Particulars: Klebsiella pneumoniae; systemic infection in mice with Klebsiella pneumonia; oral application. Here is the method: as §1, §2
In test [4] the test system is Proteus mirabilis. The note with it: systemic infection in mice with Proteus mirabilis; oral application. On the procedure:
as §1, §2

Test [5] has as its system Proteus morganii. The note with it: Morganella morganii; systemic infection in mice with Proteus morganii; oral application. On the procedure:
as §1, §2

Test [6] deals with Staphylococcus aureus 10B. Particulars: systemic infection in mice with Staphylococcus aureus 10B; oral application. Here is the method: as §1, §2

Where only a bound is given, the exact number is not on record here.

On to `CO/N=C(\C(=O)N[C@@H]1C(=O)N2C(C(=O)OCC(=O)OC3CCCCC3)=CCS[C@H]12)c1csc(N)n1` [Testverbindung 2, Ceftizoxime-cyclohexyloxycarbonylmethylester], for which the ED50 in test [1] was 0.4 mg/kg; in test [2], 0.5 to 5 mg/kg; in test [3], 7 mg/kg; in test [4] it was above 30 mg/kg; in test [5], above 100 mg/kg; in test [6] it was above 100 mg/kg.

Take `CO/N=C(\C(=O)N[C@@H]1C(=O)N2C(C(=O)OCC(=O)O[C@@H]3C[C@H](C)CC[C@H]3C(C)C)=CCS[C@H]12)c1csc(N)n1` [Testverbindung 3, Ceftizoxime-(9)-menthyloxycarbonylmethylester]: the median effective dose (ED50) in test [1] was 1.5 mg/kg; in test [2] it was 4 mg/kg; in test [3], 4 mg/kg; in test [4], at least 30 mg/kg; in test [5] it was 100 mg/kg; in test [6], 30 to 100 mg/kg.

`CO/N=C(\C(=O)N[C@@H]1C(=O)N2C(C(=O)OCC(=O)O[C@@H]3C[C@@H]4CC[C@@]3(C)C4(C)C)=CCS[C@H]12)c1csc(N)n1` [Testverbindung 1, Ceftizoxime-(ℓ)-bornyloxycarbonylmethylester]: the ED50 came out at 0.35 mg/kg in test [1]; 1 mg/kg in test [2]; 6 mg/kg in test [3]; 10 mg/kg in test [4]; 30 mg/kg in test [5]; 70 mg/kg in test [6].

Usually ED50 stands for the dose at which the effect has come halfway, by size or by number of responders. A higher ED50 goes with weaker potency.

Source of the values: patent publication EP0097127A2, “Cephalosporin derivatives, process for their preparation and pharmaceutical compositions containing them” (CIBA-GEIGY AG, priority 1982, dated 1983).
